Laboratory results reported in patent publication US11420962B2, “Indene derivatives useful in treating pain and inflammation” (TARO PHARMACEUTICALS INC., priority 2018, dated 2022).

Experiments:
Rat DRG = assay: Rat dorsal root ganglion excitability response (EFS, Ca2+ transients); format: cell-based; conditions: Rattus norvegicus; Table 3; electrical field stimulation, Ca5 indicator; read-out: Scoring (EC50, Rat DRG excitability)
In short: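 Adult rat DRG cells cultured for 2 days were loaded with the Ca5 dye 1 h before electrical field stimulation under four protocols. Compounds were tested at six concentrations (typically top 30 μM, 1:3 steps, duplicate), added either 24 h before or directly before EFS. The read-out was the per-well peak/baseline fluorescence ratio change, with imaging used to check for toxicity.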

[1] = test system: Rats (male, Sprague-Dawley); assay: TNBS colitis assay in rats; format: in vivo; conditions: 30 mg/kg dose, PO, QD for 7 days
Procedure: TNBS Colitis Assay of Representative Compounds in Rats Rats (male, Sprague-Dawley) were anaesthetized and a solution of TNBS (48 mg/kg) in ethanol, was instilled intra-rectally to induce colitis, 1 h after oral dosing of representative compounds of the invention (i.e., test compounds). Test compounds were dosed PO, QD for 7 days, using prednisolone as a reference standard. […] On Day 7, rats were euthanized and the colon was evaluated for length, weight, wall thickness, ulcer number and length and for the presence of adhesions and strictures. A colonic score was calculated based on the severity of the colonic parameters.

[2] = test system: female Sprague-Dawley rats; assay: Cyclophosphamide-induced cystitis in rats (visceral pain); format: in vivo; conditions: 0.3 to 1.0 mg/kg dose, oral gavage four days; 4 h after cyclophosphamide
Procedure: Representative compounds of the invention (i.e., test compounds) were administered to female Sprague-Dawley rats, for four days by oral gavage in 0.9% saline. Two hours after the fourth dose, the rats were challenged by intraperitoneal administration of cyclophosphamide (150 mg/kg). Referred mechanical sensitivity was measured four hours later by applying a series of eight von Frey filaments to the lower abdomen, three times each for 1-2 seconds with a 5 second interval between applications. Responses were scored (zero-no response; one-response, two-response and change of position, and three-response, change of position and licking the site or vocalization), totaled and the percent of maximal possible nociceptive score calculated. Ibuprofen was used as a reference standard.

[3] = Metabolism by human liver microsomes; format: in vitro ADME; conditions: Table 8; 10 µM, in the presence of NADPH, 1 mg/mL protein
In short: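 Compound at 10 μM preincubated 10 min at 37 °C with human liver microsomes (1 mg/mL protein), 100 mM Tris HCl pH 7.5; started with 1 mM NADPH, run 60 min. Percent remaining at 60 min versus 0-time by LC-MS/MS analyte/internal-standard ratio, scored in bands.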

## C=C1CC[C@H]2[C@H](CN)[C@@H]([C@@]3(C)Cc4cn[nH]c4C[C@@H]3CO)CC[C@]12C [Ia-1, ((5R,6S)-5-((3aS,4R,5S,7aS)-4-(aminomethyl)-7a-methyl-1-methyleneoctahydro-1H-inden-5-yl)-5-methyl-4,5,6,7-tetrahydro-1H-indazol-6-yl)methanol]
Rat DRG
  EC50: 6 to 15 µM
[1]
  inhibition of the colonic score: 36%
[2]
  nociceptive threshold, % of baseline (pre-challenge) levels: 70-91%
[3]
  Scoring (% of drug remaining after 60 minutes, PDR60): B (a PDR^60 of 61 to 80%)
